Among the data in PubChem BioAssay (NCI) are TGI and GI50 values, retold here.

SMILES strings stand for the structures.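 Compound exposure: 48 hours, 5 concentrations, 96-well plates. GI50 = concentration required for 50% inhibition of growth. At the TGI there is no net growth.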

Experiment in all cases: inhibition of tumour cell growth, NCI panel, 48 h
For assay [1], the system named is DU-145 prostate.
The subject of assay [2] is BT-549 breast.
Assay [3] deals with HOP-62 NSCLC.
The subject of assay [4] is NCI-H226 lung.
The subject of assay [5] is MALME-3M melanoma.
Assay [6] relates to OVCAR-5 ovarian.
Assay [7] relates to EKVX NSCLC.
Assay [8] relates to CAKI-1 renal.
Assay [9] relates to SNB-19 CNS.
Assay [10] has as its system LOX IMVI melanoma.

With `Clc1ccccc1C(SCc1ccccc1)SCc1ccccc1`, the TGI in assay [1], in [2], in assay [3], in assay [4], in assay [5] and in assay [6] was > 100 µM each time. Moreover, the TGI in assay [7], in [8] and in [9] was > 100 µM throughout.

As for `OC1CSSC1Cn1cnc2c(Nc3ccc(OCc4cccc(F)c4)c(Cl)c3)ncnc21` (stereo not drawn), the GI50 in [1] is 1.19 µM; in assay [2] it was 4.98 µM; in [10], 0.121 µM; in assay [3], 0.94 µM; in assay [4] it was 3.38 µM; in assay [5], 2.52 µM. The GI50 in assay [6] is 3.83 µM; in [7], 0.603 µM; in assay [8], 2.2 µM; in assay [9], 2.14 µM. In addition, the TGI in assay [1] worked out at 4.95 µM; in assay [2], 12.1 µM; in assay [10], 0.499 µM; in assay [3], 2.79 µM; in assay [4], 12.8 µM; in assay [5], 10.6 µM. Moreover, the TGI came to 10.2 µM in assay [6], 2.35 µM in assay [7], 6.85 µM in [8] and 7.22 µM in assay [9].

As to `Fc1[nH]nc2ccc([C@@H]3Nc4ccc5[nH]ncc5c4[C@H]4C5CCC(C5)[C@@H]34)cc12` (stereo partly drawn), the GI50 is 3.22 µM in assay [1]; 1.77 µM in [2]; 0.768 µM in assay [10]; 0.747 µM in [3]; 3.54 µM in assay [4]; 11.6 µM in assay [5]. In addition, the GI50 in assay [6] was 3.06 µM; in [7], 2.39 µM; in assay [8], 0.671 µM; in assay [9] it was 1.22 µM. In addition, the TGI in [1] amounted to 14.9 µM; in assay [2] it was 17.8 µM; in assay [10] it was 14 µM; in [3], 13.8 µM; in assay [4] it was 25.9 µM; in [5], 26 µM. Moreover, the TGI in assay [6] was 14.6 µM; in assay [7], 17.4 µM; in assay [8], 15 µM; in assay [9] it was 18.1 µM.

Consider `NC(N)=NS(=O)(=O)c1ccc(Nc2c3ccccc3nc3c(C(=O)NCCO)cccc23)cc1`, for which the GI50 in [1] is 15.3 µM; in assay [2], 33.8 µM; in assay [10], 28 µM; in assay [3] it was 20 µM; in [5], 16.7 µM; in [6], 22.4 µM. The values for the GI50 in assay [7], in assay [8] and in [9] were 25.7 µM, 22.8 µM and 26.6 µM, respectively. In assay [4], this compound had a TGI of 0.322 µM.

`COc1cc2c(cc1OCCCCN1CCN(CC(=O)Nc3ccc(Cl)cc3C(=O)c3ccccc3Cl)CC1)N=CC1CCCN1C2=O` (stereo not drawn): the GI50 was 0.277 µM in [1]; 0.292 µM in [2]; 0.203 µM in [10]; 0.196 µM in assay [3]; 0.483 µM in assay [4]; 0.186 µM in assay [5]. Besides, the GI50 in assay [6] is 0.324 µM; in [7], 0.375 µM; in assay [8] it was 0.28 µM; in [9], 0.36 µM. Further, the TGI in [1] was 0.791 µM; in assay [2], 0.799 µM; in assay [10], 0.442 µM; in [3] it was 0.411 µM; in [4], 1.44 µM; in assay [5] it was 0.346 µM. In addition, the TGI in [6] was determined as 0.939 µM; in assay [7], 1.07 µM; in [8], 0.676 µM; in assay [9], 1.15 µM.

Consider `CCN(CC)N=Nc1c(C(N)=O)n[nH]c1C`, for which the TGI in [1], in assay [2], in assay [10], in assay [3], in assay [4] and in assay [5] was > 100 µM throughout. The TGI in [7], in assay [8] and in assay [9] was > 100 µM each time.

For the compound `COC(CCC[N+](C)(C)C)CC[N+](C)(C)C` (stereo not drawn), the TGI in assay [1], in assay [2], in assay [3], in assay [4], in assay [5] and in assay [6] was > 100 µM in each case. The TGI in assay [7], in [8] and in [9] was > 100 µM each time.

With `Cc1ccsc1C(=S)Nc1ccc(Cl)c(/C=N/OC(C)(C)C)c1`, the TGI in [1] was > 100 µM; in [2] it was 59.8 µM; in assay [10], 48.8 µM; in [3], > 100 µM; in [4], > 100 µM; in assay [5], > 100 µM. Further, the TGI in [6], in assay [7], in [8] and in [9] was > 100 µM in each case.

As to `COC([CH2][Hg][n]1cnc2c1c(=O)n(C)c(=O)n2C)CN1C(=O)c2ccccc2S1(=O)=O` (stereo not drawn), the GI50 in assay [1], in assay [2], in [10], in assay [3], in assay [4] and in assay [5] was > 100 µM in each case. In addition, the GI50 in [6], in assay [7], in assay [8] and in assay [9] was > 100 µM in each case. Further, the TGI in assay [1], in [2], in [10], in [3], in assay [4] and in [5] was > 100 µM in each case. The TGI in assay [6], in [7], in [8] and in assay [9] was > 100 µM in each case.

As to `C=CCOc1ccc2c(C)cc(=O)oc2c1C`, the TGI in assay [1], in [2], in assay [10], in [3], in assay [4] and in [5] was > 100 µM in each case. For the same compound, the TGI in assay [6], in assay [7], in assay [8] and in [9] was > 100 µM each time.

Take `O=C1/C(=C/c2ccc(O)c(O)c2)CCC/C1=C\c1ccc(O)c(O)c1`: the TGI in assay [1] was 17.5 µM; in assay [2], > 33.9 µM; in assay [10], 7.68 µM; in assay [3], 14.5 µM; in assay [4], 9.43 µM; in assay [5] it was 7.05 µM. Also, the TGI in assay [6] is 31.2 µM; in assay [7] it was 32.4 µM; in assay [8], 12.5 µM; in assay [9], 29.1 µM.

With `COC(=O)/C=C1\S/C(=N\NC(=O)c2cc3ccc2/C=C\c2ccc(cc2)/C=C\3)N(c2ccccc2)C1=O`, the GI50 in [1] is 5.11 µM; in assay [2] it was 2.22 µM; in [10], 1.69 µM; in assay [3] it was 2.68 µM; in assay [4], 4.38 µM; in assay [5] it was 3.27 µM. Moreover, the GI50 is 1.92 µM in assay [6], 1.91 µM in assay [7], 3.74 µM in assay [8] and 1.95 µM in assay [9]. The TGI in assay [1] is 35.3 µM; in assay [2] it was 5.35 µM; in assay [10], 3.37 µM; in assay [3], 6.97 µM; in assay [4], 25.5 µM; in [5] it was 21.4 µM. The TGI in [6] turned out to be 3.84 µM; in assay [7], 4.23 µM; in [8], 30 µM; in [9] it was 4.25 µM.

Regarding `CCN1/C(=C\c2cc[n+](CC)c3ccccc23)C=Cc2ccccc21`, the GI50 in assay [1] is 0.265 µM; in assay [2], 0.0811 µM; in assay [10], 0.179 µM; in [4], 0.301 µM; in assay [5], 0.138 µM; in assay [6], 0.611 µM. Moreover, the GI50 in assay [7] was 0.0764 µM; in assay [8], 4.71 µM; in assay [9], 0.163 µM. The TGI was determined as 13.4 µM in [1]; 1.5 µM in assay [2]; 1.52 µM in assay [10]; 13.1 µM in assay [4]; 0.857 µM in assay [5]; 13.8 µM in [6]. The TGI in assay [7] turned out to be 12.1 µM; in [8] it was 22.5 µM; in [9], 11.7 µM.

Take `COc1ccc2c(c1)sc1nc(-c3ccccc3)c(-c3cccc4ccccc34)n12`: the GI50 in assay [1] was 0.767 µM; in assay [2], 1.15 µM; in assay [10], 0.713 µM; in [3], 0.538 µM; in [4], 0.604 µM; in assay [5], > 100 µM. Further, the GI50 in assay [6] was 2.07 µM; in [7] it was 1.61 µM; in assay [8] it was 0.792 µM; in [9], 0.589 µM. The TGI in [1] is > 31.9 µM; in assay [2], > 93.2 µM; in [10] it was > 100 µM; in assay [4] it was 5.28 µM; in [5], > 100 µM; in assay [6], > 100 µM. The TGI in assay [7], in assay [8] and in assay [9] was > 100 µM each time.

For `O=C1CC(NC(=O)C(F)(F)F)c2c(Br)sc(N3CCNCC3)c21` (stereo not drawn), the TGI in assay [1], in assay [2], in assay [10], in [4], in [5] and in assay [6] was > 100 µM in each case. The TGI in assay [7], in assay [8] and in assay [9] was > 100 µM each time.

As to `COc1ccc(CC2c3cc4c(cc3CCN2C)OCO4)c(C=O)c1OC` (stereo not drawn), the TGI in [1], in assay [2], in assay [10], in assay [4], in assay [5] and in assay [6] was > 100 µM each time. The TGI in assay [7], in assay [8] and in assay [9] was > 100 µM each time.

On to `CCOC1Oc2ccccc2C(=O)/C1=C/Nc1ccc(C(C)=O)cc1` (stereo not drawn), for which the GI50 is 29.6 µM in assay [1]; 29 µM in assay [2]; 18.9 µM in [10]; 18.5 µM in [3]; 26.7 µM in [4]; 19.5 µM in assay [6]. The results for the GI50 in [7], in assay [8] and in [9] were 25.4 µM, 19 µM and 42.2 µM, respectively. For the same compound, the TGI in assay [1] is > 100 µM; in assay [2], 92.3 µM; in [10], 58.5 µM; in assay [3], 40 µM; in [4] it was 68.1 µM; in [6], 48.3 µM. Besides, the TGI is 93.6 µM in [7], 45.3 µM in assay [8] and > 100 µM in [9].

With `O=C(Nc1ccc(F)cc1)Nc1ccc(Cl)c([N+](=O)[O-])c1`, the GI50 was 4.44 µM in assay [1]; 2.9 µM in assay [2]; 3.51 µM in assay [10]; 3.78 µM in [3]; 2.28 µM in assay [4]; 2.37 µM in assay [5]. For the same compound, the GI50 was 3.55 µM in [6], 2.79 µM in [7] and 3.54 µM in [9]. In addition, the TGI in [1] is 21.2 µM; in [2] it was 10.8 µM; in assay [10], 12.2 µM; in assay [3], 15.9 µM; in [4], 9.3 µM; in assay [5], 7.2 µM. In addition, the TGI stood at 14.9 µM in [6], 11 µM in [7] and 14.3 µM in [9].

With `O=[N+]([O-])c1cccc(-c2csc(NNC3=NC/C(=C/c4ccc5c(c4)OCO5)S3)n2)c1`, the TGI in assay [1] was > 100 µM; in assay [2] it was > 100 µM; in [10], > 100 µM; in assay [3], > 100 µM; in assay [4], 43.3 µM; in [6] it was > 100 µM. The TGI in assay [7] was 41 µM; in [8], > 100 µM; in [9] it was 64.8 µM.

As for `COc1cnc2c(c1)C(=O)c1c-2n(CCCN2CCOCC2)c(=O)c2cc(F)ccc12`, the GI50 in [1] is 0.341 µM; in [2] it was 0.523 µM; in [10], 0.161 µM; in [3], 0.187 µM; in assay [4] it was 0.206 µM; in [5], 0.503 µM. The GI50 in assay [7] is 0.482 µM; in assay [9], 0.264 µM. Besides, the TGI is > 100 µM in assay [1]; > 100 µM in assay [2]; 0.387 µM in [10]; 0.991 µM in assay [3]; 1.14 µM in [4]; 3.42 µM in assay [5]. For the same compound, the TGI was > 100 µM in assay [7] and 7 µM in [9].
